The molecules below were run against T1, Human Recombinant Matriptase 2 (Homo sapiens, UniProt Q8IU80) (assay: Matriptase 2 fluorescence based inhibition assay, Method A (100 mM TRIS pH 9, 1 mg/mL BSA)). Conditions: 1 uM compound; Assay Used = A; read-out: Mar-2 % inhibition at 1 uM.
T1 construct: purchased Enzo Life Sciences (an in-house preparation was also used) ALX-201-752-1
T1 sequence (Q8IU80 1-811): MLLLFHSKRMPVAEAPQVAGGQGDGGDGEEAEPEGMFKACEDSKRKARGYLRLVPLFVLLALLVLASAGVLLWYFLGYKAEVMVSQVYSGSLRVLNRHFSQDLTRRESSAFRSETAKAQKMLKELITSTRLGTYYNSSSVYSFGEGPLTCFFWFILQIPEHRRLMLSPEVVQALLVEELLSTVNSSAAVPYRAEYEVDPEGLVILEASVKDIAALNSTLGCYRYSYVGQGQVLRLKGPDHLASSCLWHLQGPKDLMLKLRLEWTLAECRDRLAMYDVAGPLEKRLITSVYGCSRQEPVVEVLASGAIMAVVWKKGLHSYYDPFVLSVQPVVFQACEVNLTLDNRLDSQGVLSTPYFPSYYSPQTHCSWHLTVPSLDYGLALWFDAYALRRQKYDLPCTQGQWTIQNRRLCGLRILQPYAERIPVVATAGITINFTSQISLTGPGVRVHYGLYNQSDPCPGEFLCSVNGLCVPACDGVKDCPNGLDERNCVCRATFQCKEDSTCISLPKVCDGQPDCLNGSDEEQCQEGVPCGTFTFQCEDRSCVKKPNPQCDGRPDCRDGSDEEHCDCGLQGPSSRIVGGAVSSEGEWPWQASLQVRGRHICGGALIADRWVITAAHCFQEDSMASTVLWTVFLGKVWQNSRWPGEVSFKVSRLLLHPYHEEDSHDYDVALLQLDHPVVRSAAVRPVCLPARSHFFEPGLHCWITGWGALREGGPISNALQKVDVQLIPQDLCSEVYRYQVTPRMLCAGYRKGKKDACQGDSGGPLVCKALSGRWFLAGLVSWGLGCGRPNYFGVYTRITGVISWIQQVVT
Assay type: biochemical
How it was run: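 Enzyme (7 nM commercial or 15 nM in-house) preincubated 30 min with compound in 100 mM TRIS pH 9, 1 mg/mL BSA, 1% DMSO at 25° C. Boc-Gln-Ala-Arg-AMC substrate at 100 μM; fluorescence (Ex 360/Em 480 nm) read 60 min later. Screened at 1 and 10 μM; IC50 from variable-slope sigmoidal fit.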
In the case of `N/C(=N/O)c1ccc2cc(C(=O)N[C@H]3CC[C@H](N)CC3)n(Cc3cccc4ccccc34)c2c1` [Compound I-400], the inhibition at 1 µM is reported as 25 to 50%.

Same assay, conditions: 1 uM; Assay Used A; read-out: Mar-2 % inhibition at 1 uM
`N=C(NC(=O)OC1CCCCC1)c1ccc2cc(C(=O)Nc3cccc(N4CCCC4)c3)n(Cc3ccc(C(N)=O)cc3)c2c1` [Compound I-164] showed an inhibition at 1 µM of 0 to 25%. In the case of `Cc1ccnc(NC(=O)c2cc3ccc(C(=N)N)cc3n2Cc2ccc(C(N)=O)cc2)c1` [Compound I-176], the inhibition at 1 µM is reported as 0 to 25%. `N=C(N)c1ccc2cc(C(=O)Nc3ccc(Cl)cc3)n(Cc3ccc(C(N)=O)cc3)c2c1` [Compound I-84] gave an inhibition at 1 µM of 0 to 25%. `CN(C)C(=O)COc1ccc(NC(=O)c2cc3ccc(C(=N)N)cc3n2Cc2ccc(C(N)=O)cc2)cc1` [Compound I-99] gave an inhibition at 1 µM of 25 to 50%. `N=C(N)c1ccc2cc(C(=O)Nc3ccc(F)nc3)n(Cc3ccc(C(N)=O)cc3)c2c1` [Compound I-173] was tested, and the inhibition at 1 µM was 0 to 25%. Molecule `N=C(N)c1ccc2cc(C(=O)Nc3cccc(N4CCCCC4)c3)n(Cc3ccc(C(N)=O)cc3)c2c1` [Compound I-110] has an inhibition at 1 µM of 0 to 25%. With `CN(C)CC(=O)O/N=C(\N)c1ccc2cc(C(=O)Nc3cccc(N4CCCC4)c3)n(Cc3ccc(C(N)=O)cc3)c2c1` [Compound I-135, 1-(4-Carbamoylbenzyl)-6-(N′-(2-(dimethylamino)acetoxy)carbamimidoyl)-N-(3-(pyrrolidin-1-yl)phenyl)-1H-indole-2-carboxamide] the inhibition at 1 µM was 0 to 25%. `N=C(N)c1ccc2cc(C(=O)N[C@H]3CC[C@H](N)CC3)n(CCc3ccccc3)c2c1` [Compound I-27] was tested, and the inhibition at 1 µM was 50 to 75%. In the case of `N=C(N)c1ccc2cc(C(=O)NCC3CCCCC3)n(Cc3ccc(OC(F)(F)F)cc3)c2c1` [Compound I-12], the inhibition at 1 µM is reported as 0 to 25%. For `N=C(N)c1ccc2cc(C(=O)N[C@H]3CC[C@H](NC(=O)c4ccccn4)CC3)n(Cc3ccc(C(F)(F)F)cc3)c2c1` [Compound I-9, 6-carbamimidoyl-N-((1r,4r)-4-(picolinamido)cyclohexyl)-1-(4-(trifluoromethyl)benzyl)-1H-indole-2-carboxamide], the inhibition at 1 µM was 25 to 50%. Molecule `N=C(N)c1ccc2cc(C(=O)Nc3cc(N4CCCC4)ccc3F)n(Cc3ccc(C(N)=O)cc3)c2c1` [Compound I-152] has an inhibition at 1 µM of 0 to 25%. `N=C(N)c1ccc2cc(C(=O)Nc3ccc(F)cc3)n(CCS(=O)(=O)c3ccccc3)c2c1` [Compound I-42] showed an inhibition at 1 µM of 0 to 25%. `N=C(N)c1ccc2cc(C(=O)NCC3CCC(F)(F)CC3)n(CCS(=O)(=O)c3ccccc3)c2c1` [Compound I-54] was tested, and the inhibition at 1 µM was 0 to 25%. `CC1CCC(NC(=O)c2cc3ccc(C(=N)N)cc3n2CCS(=O)(=O)c2ccccc2)CC1` (centres unmarked) [Compound I-46] was tested, and the inhibition at 1 µM was 0 to 25%. For `N=C(N)c1ccc2cc(C(=O)Nc3cc(F)ccc3F)n(Cc3ccc(C(N)=O)cc3)c2c1` [Compound I-115], the inhibition at 1 µM was 0 to 25%. `C[C@H](NC(=O)c1cc2ccc(C(=N)N)cc2n1Cc1ccc(C(N)=O)cc1)c1ccc(Cl)c(Cl)c1` [Compound I-107] was tested, and the inhibition at 1 µM was 0 to 25%. `N=C(N)c1ccc2cc(C(=O)Nc3cccc(-c4ncc[nH]4)c3)n(Cc3ccc(C(N)=O)cc3)c2c1` [Compound I-137] gave an inhibition at 1 µM of 25 to 50%. `CC(C)OC(=O)NC(=N)c1ccc2cc(C(=O)Nc3cccc(N4CCCC4)c3)n(Cc3ccc(C(N)=O)cc3)c2c1` [Compound I-142] was tested, and the inhibition at 1 µM was 25 to 50%. `N=C(N)c1ccc2cc(C(=O)Nc3cccc(-n4cc(C(F)(F)F)cn4)c3)n(Cc3ccc(C(N)=O)cc3)c2c1` [Compound I-165] was tested, and the inhibition at 1 µM was 0 to 25%. `N=C(N)c1ccc2cc(C(=O)Nc3cccc(OCC4CC4)c3)n(Cc3ccc(C(N)=O)cc3)c2c1` [Compound I-121] showed an inhibition at 1 µM of 0 to 25%. For `CC(C)(O)[C@@H](NC(=O)c1cc2ccc(C(=N)N)cc2n1Cc1ccc(C(N)=O)cc1)c1ccccc1` [Compound I-125], the inhibition at 1 µM was 25 to 50%. `N=C(N)c1ccc2cc(C(=O)Nc3cccnc3)n(Cc3ccc(C(N)=O)cc3)c2c1` [Compound I-170] was tested, and the inhibition at 1 µM was 0 to 25%. `N=C(N)c1ccc2cc(C(=O)Nc3ccc(N4CC[C@H](F)C4)cc3)n(Cc3ccc(C(N)=O)cc3)c2c1` [Compound I-105] gave an inhibition at 1 µM of 25 to 50%. `CC(C)c1cccc(NC(=O)c2cc3ccc(C(=N)N)cc3n2Cc2ccc(C(N)=O)cc2)c1` [Compound I-79] gave an inhibition at 1 µM of 0 to 25%. `N=C(N)c1ccc2cc(C(=O)Nc3cccc(N4CCOCC4)c3)n(Cc3ccc(C(N)=O)cc3)c2c1` [Compound I-129] was tested, and the inhibition at 1 µM was 0 to 25%.

Same assay, conditions: at 1 uM; Assay Used = A; read-out: Mar-2 % inhibition at 1 uM
In the case of `N=C(N)c1ccc2cc(C(=O)NC34CC5CC(CC(C5)C3)C4)n(Cc3ccc(C(N)=O)cc3)c2c1` [Compound I-200], the inhibition at 1 µM is reported as 0 to 25%. `N=C(N)c1ccc2c(N)c(C(=O)N3CCC(CCN)CC3)n(CCS(=O)(=O)c3ccccc3)c2c1` [Compound I-349, 3-Amino-2-(4-(2-aminoethyl)piperidine-1-carbonyl)-1-(2-(phenylsulfonyl)ethyl)-1H-indole-6-carboximidamide] was tested, and the inhibition at 1 µM was 25 to 50%. Molecule `N=C(N)c1ccc2cc(C(=O)N[C@H]3CCNC3)n(Cc3ccc(C(N)=O)cc3)c2c1` [Compound I-205] has an inhibition at 1 µM of 25 to 50%. For `CNC(=O)c1ccc(Cn2c(C(=O)N3CCC(F)CC3)cc3ccc(C(=N)N)cc32)cc1` [Compound I-388], the inhibition at 1 µM was 0 to 25%. Work on `N=C(N)c1ccc2cc(C(=O)N3CCC(F)(F)C3)n(Cc3ccc(Oc4ccccc4)cc3)c2c1` [Compound I-314] yielded an inhibition at 1 µM of 0 to 25%. `N=C(N)c1ccc2cc(C(=O)N3CCC(F)(F)CC3)n(Cc3cccc(NC(=O)CCN)c3)c2c1` [Compound I-367] showed an inhibition at 1 µM of 0 to 25%. For `CC1CCC(NC(=O)c2cc3ccc(C(=N)N)cc3n2Cc2ccc(C(=O)NCCN)cc2)CC1` (centres unmarked) [Compound I-224, 1-(4-((2-Aminoethyl)carbamoyl)benzyl)-6-carbamimidoyl-N-(4-methylcyclohexyl)-1H-indole-2-carboxamide], the inhibition at 1 µM was 0 to 25%. For `N=C(N)c1ccc2cc(C(=O)N3CCC4CCCCC4C3)n(CCS(=O)(=O)c3ccccc3)c2c1` (centres unmarked) [Compound I-339], the inhibition at 1 µM was 0 to 25%. Work on `NC(=O)c1ccc2cc(C(=O)N3CCc4ccccc4C3)n(Cc3ccc(-c4ccccc4)cc3)c2c1` [Compound I-394, 1-([1,1′-Biphenyl]-4-ylmethyl)-2-(1,2,3,4-tetrahydroisoquinoline-2-carbonyl)-1H-indole-6-carboxamide] yielded an inhibition at 1 µM of 0 to 25%. Work on `N=C(N)c1ccc2cc(C(=O)NCC3CCCCC3)n(Cc3ccc(C(=O)NCCO)cc3)c2c1` [Compound I-222, 6-Carbamimidoyl-N-(cyclohexylmethyl)-1-(4-((2-hydroxyethyl)carbamoyl)benzyl)-1H-indole-2-carboxamide] yielded an inhibition at 1 µM of 0 to 25%. `CC(C)c1ccc(Cn2c(C(=O)N3CC[C@H](F)C3)cc3ccc(C(=N)N)cc32)cc1` [Compound I-293] was tested, and the inhibition at 1 µM was 0 to 25%. `N=C(N)c1ccc2cc(C(=O)N3CCC(F)(F)CC3)n(Cc3ccc(NC(=O)CCN)cc3)c2c1` [Compound I-374] showed an inhibition at 1 µM of 0 to 25%. For `N=C(N)c1ccc2cc(C(=O)N3CCCC4CCCCC43)n(CCS(=O)(=O)c3ccccc3)c2c1` (centres unmarked) [Compound I-338], the inhibition at 1 µM was 0 to 25%. `N=C(N)c1ccc2cc(C(=O)NCC3CCCCC3)n(Cc3ccc(C(=O)NC4CC4)cc3)c2c1` [Compound I-217, 6-Carbamimidoyl-N-(cyclohexylmethyl)-1-(4-(cyclopropylcarbamoyl)benzyl)-1H-indole-2-carboxamide] was tested, and the inhibition at 1 µM was 0 to 25%. `N=C(N)c1ccc2cc(C(=O)Nc3nc4ccccc4s3)n(Cc3ccc(C(N)=O)cc3)c2c1` [Compound I-265] gave an inhibition at 1 µM of 0 to 25%. Work on `N=C(N)c1ccc2cc(C(=O)N3CCC(F)CC3)n(Cc3ccc(C(=O)NC4CC4)cc3)c2c1` [Compound I-391] yielded an inhibition at 1 µM of 0 to 25%. `N=C(N)c1ccc2cc(C(=O)NC3CCC(F)(F)CC3)n(Cc3cccc(NC(=O)CCN)c3)c2c1` [Compound I-260, 1-(3-(3-Aminopropanamido)benzyl)-6-carbamimidoyl-N-(4,4-difluorocyclohexyl)-1H-indole-2-carboxamide] gave an inhibition at 1 µM of 0 to 25%. `N=C(N)c1ccc2cc(C(=O)N3CCC(F)(F)C3)n(Cc3cccc(C(N)=O)c3)c2c1` [Compound I-324] showed an inhibition at 1 µM of 0 to 25%. `N=C(N)NCCCNC(=O)C1CCN(C(=O)c2cc3ccc(C(=N)N)cc3n2Cc2ccc(C(F)(F)F)cc2)CC1` [Compound I-359, 1-(6-Carbamimidoyl-1-(4-(trifluoromethyl)benzyl)-1H-indole-2-carbonyl)-N-(3-guanidinopropyl)-piperidine-4-carboxamide] showed an inhibition at 1 µM of 25 to 50%. With `N=C(N)c1ccc2cc(C(=O)N3CCC(CF)CC3)n(Cc3ccc(OC(F)(F)F)cc3)c2c1` [Compound I-291] the inhibition at 1 µM was 0 to 25%. Molecule `N=C(N)c1ccc2cc(C(=O)N3CCC(CCN)CC3)n(CCc3ccc(F)cc3)c2c1` [Compound I-301] has an inhibition at 1 µM of 25 to 50%.
